# Laboratory results reported in patent US20240197761A1, “FUCOSYLATION AND IMMUNE MODULATION IN CANCER” (H. LEE MOFFITT CANCER CENTER AND RESEARCH INSTITUTE, INC., priority 2021, published 2024).
# Legend:
# SW1 tumors = assay: NSG melanoma model: SW1 tumor growth in immunodeficient mice; format: in vivo
# Description: All animals were housed at the Vincent A. Stabile Research building animal facility at H. Lee Moffitt Cancer Center & Research Institute, which is fully accredited by the Association for Assessment and Accreditation of Laboratory Animal Care International (AAALAC, #434), and are managed in accordance with the Guide for the Care and Use of Laboratory Animals (“The Guide”), the Animal Welfare Regulations Title 9 Code of Federal Regulations Subchapter A, “Animal Welfare”, Parts 1-3 (AWR), the Public Health Service Policy on Humane Care and Use of Laboratory Animals (PHS Policy), and by the USF Institutional Animal Care and Use Committee's Principles and Procedures of Animal Care and Use (IACUC Principles). The experiments and protocols detailed in this study received institutional approval by the Moffitt IACUC (RIS00001625). Four-to-six-week-old female C3H/HeN and male C57BL6 mice were purchased from Charles Rivers Laboratories for the indicated experiments. Four-to-six-week-old male NSG mice from the Lau laboratory breeding colony were used for the indicated experiments. Power calculations were used to determine mouse cohort sizes to detect significant changes in tumor sizes. […] Mouse tumor volumes were measured using length, width and depth divided by 2. […]
# BM-derived MDSCs = assay: NO production of BM-derived MDSCs (Greiss assay); format: cell-based, Balb/C mice; details: 250 uM L-fuc prior, during and/or after GM/G-CSF stimulation
# Description: Tlhe myeloid cells, which were stimulated to imlmuno, suppressive MDSCs using GM/G-CSF, were divided into 3 treatment groups: (i) Treatment±250 uM L-fuc prior, duri ng, and after GM/G-CSF stimulation. Treatment±250 uM L-fuc during and after GM/G-CSF stimulation. (ii) Treatment±250 uM L-fuc only after GM/G-CSF stimulation. Greiss assay timepoints reier to hours after initial dose of L-fuc regardless of when cells were treated, L-fuc abrogated their ability to glenerate NO. […] We subsequently co-cultured the modulated MDSCs wilh T cells, which were then activated or not with CD3/CD28 beads and measured for IFNψ production. *. p •<0.05
compound,measurement,setting,value
C[C@H](O)[C@@H](O)[C@@H](O)[C@H](O)C=O [L-fucose],SW1 tumor growth,SW1 tumors,did not reduce
same,NO production,BM-derived MDSCs,abrogated
